A short description of data set [1]: Particle size distribution by microscopic examination. Type of data set: physicochemical. The procedure:
For the purposes of this specification the particle size of the particles was determined by microscopic examination. It should be assumed that the particles are of a constant thickness. The surface area of each visible particle face should be determined, and the particle size calculated by calculating the square root of the visible surface area of each particle.
The particle size of the ibuprofen crystallites precipitated during the cooling and stirring of the above formulation was compared with that of the unreacted ibuprofen powder. The respective particle sizes were determined by microscopic examination. It was assumed that the crystals were of a constant thickness. The surface area of each crystal was then determined, and the particle size calculated by calculating the square root of the measured surface area. This value was then taken to be the length of side. The total area of the counted particles was measured and the sum of the areas of the different size ranges estimated as a percentage of the total. The results were: Table 1
The particle size of the crystals were determined by microscopic examination. It was assumed that the crystals were of a constant thickness. The surface area of each crystal was then determined, and the particle size calculated by calculating the square root of the measured surface area. This value was then taken to be the length of side. The total area of the counted particles was measured and the sum of the areas of the different size ranges estimated as a percentage of the total. The results were: Table 1

Data set [2] in a line: Urinary ibuprofen after topical application to shaved dorsal skin. Type of data set: in vivo, Hooded Wistar rats. Particulars: topically applied composition according to the invention. The text has this: Four anesthetized Hooded Wistar rats were fitted with jugular and bladder catheters. […] Plastic covers were placed over the shaved area to prevent the animals ingesting the applied composition.
The animals were placed in metabolism cages and the urinary ibuprofin monitored.

For data set [3] the following is noted: according to Gruber et al; cited from earlier work.

For `O=C1O[C@H]([C@@H](O)CO)C(O)=C1O` [Unformulated Ascorbic Acid, ascorbic acid], the “Percentage Particles in Size range” value is given as 0.36 Percentage in data set [1] (size range 10-20µm), 0.57 Percentage in data set [1] (size range 20-50µm), 2.7 Percentage in data set [1] (size range 50-100µm) and 96 Percentage in data set [1] (size range >100µm).

`CC(C)Cc1ccc(C(C)C(=O)O)cc1` (stereo not shown) [ibuprofen]: in data set [2], the absorption kinetics entry is listed as “zero order kinetics” and the “time still being excreted after topical application” value is reported as “more than 160 hours”. In data set [3], the “solubility in water and conventional media” value is “only sparingly soluble”.

These data come from patent publication EP0572494B1, “COMPOSITION FOR USE IN TRANSDERMAL ADMINISTRATION” (priority 1991, dated 1992).
